Assay results as given in patent US11147798B2, “Use of carbamate compound for prevention, alleviation, or treatment of demyelinating disease” (SK BIOPHARMACEUTICALS CO., LTD., priority 2016, dated 2021).
“And” between values parts separate entries of the source, which are not always exact repeats. Identical values can stand only once.

Legend:
retinal ganglion cells = assay: Number of retinal ganglion cells per unit area in retinal whole mounts (Brn3a, RBPMS staining) in the EAE model; assay type: in vivo, female C57BL/6 mice
Method: (§1) For this experiment, female C57BL/6 mice were purchased from Janvier Labs of France and were maintained under conditions of temperature (22±1° C.), a light-and-darkness cycle of 12 hours and free access to water and food according to the protocol approved and investigated by the Animal Experiment Committee of Finland. All animals were kept isolated for a week after purchase and had time to adapt to the kennel. 11-week-old animals were used in the experiment. According to the criteria of the Animal Experiment Committee of Finland, in the case of a weight loss of 20% or more compared to the starting point, a degree of disease progression (clinical score) of 4 or more, or a failure in the righting reflex test in clinical score of 3, the experiment was stopped and animals were sacrificed for humanitarian purposes.
(§2) To induce EAE, an inoculum was purchased from Hooke Laboratories of the United States: the inoculum contains 100 μg of MOG35-55 peptide and 200 μg of heat-inactivated Mycobacterium tuberculosis, both dissolved in 100 μl of mineral oil. 100 μl of the inoculum was injected subcutaneously into both high and low parts of the back of mice. 100 μl pertussis toxin was injected into the peritoneum of the mice twice, two hours after inoculation and after 24 hours.
The test compound was dissolved in distilled water containing 30% polyethylene glycol 400 (PEG 400) and treated with an ultrasonic sonicator for 30 minutes. The dissolved compound (20 mg/kg or 30 mg/kg) or vehicle was injected into the peritoneum once daily from the 12th day after EAE induction.
When the experiment was terminated or when the time of sacrifice for humanitarian purposes was reached, the mice were sacrificed by cardiac perfusion using a tissue fixative, and the eye and optic nerve were removed for further analysis.
The retinal whole mount samples were extracted from both eyes and stained with antibodies of RBPMS (RNA binding protein with multiple splicing) and Brn3a (brain-specific homeobox/POU domain protein 3A) which are retinal ganglion cell markers, followed by analyzation in a stereological manner (Stereo Investigator, MicroBrightfield, VT, USA).
(§3) Quantitative data were graphed (plotted) and analyzed using Prism software version 7 (GraphPad Software Inc. La Jolla, Calif.), the data were expressed as mean±standard deviation or standard error of mean. Comparisons with the vehicle group were analyzed using a t-test, and when the significance (p value) was less than 0.05, it was judged as a statistically significant difference.

[1] = system: Experimental Autoimmune Encephalomyelitis (EAE) model; assay: Pattern retinal conduction (pERG) amplitude in the EAE model; assay type: in vivo, female C57BL/6 mice; details: for Pattern retinal conduction amplitude (pERG amplitude), Mean ± SEM: measured 28 days after induction
Method: as §1, §2
The test compound was dissolved in distilled water containing 30% polyethylene glycol 400 (PEG 400) and treated with an ultrasonic sonicator for 30 minutes. […]
Pattern retinal conduction was measured two days before and 28 days after EAE induction. […] After performing the test, the results were analyzed using Matlab software (MathWorks, Natick, Mass.).
as §3

[2] = system: Experimental Autoimmune Encephalomyelitis (EAE) model; assay: Systemic motor symptom alleviation (EAE clinical score) in an Experimental Autoimmune Encephalomyelitis (EAE) model; assay type: in vivo, male C57BL/6 mice; details: for EAE clinical score: mean±SEM
Method: For this experiment, male C57BL/6 mice were purchased from Orient Bio, Inc. of Korea. The mice were placed in a wire mesh cage under conditions of ambient temperature of 20 to 24° C., relative humidity of 55 to 75%, an automatically controlled light-and-darkness cycle of 12 hours and free access to feed (purchased from Agri Brands Purina Korea, Inc.) and water. The mice were housed and maintained in accordance with the Laboratory Animal Care Standards of the Institutional Animal Care and Use Committee (IACUC). After about one week of stabilization, mice weighing 18 to 23 g were used in the experiment.
To 100 mg of Mycobacterium tuberculosis H37RA (killed and desiccated; Difco, 231141, USA) which had been well triturated in mortar, was mixed 10 ml of Incomplete Freund's adjuvant (IFA; Difco, 263910, USA) to prepare 10 mg/ml of Complete Freund's adjuvant (CFA) storage solution, followed by refrigeration at 4° C. Myelin oligodendrocyte glycoprotein (MOG35-55; Peptron, Korea) was diluted with PBS (phosphate-buffered saline; Gibco, 10010, USA) to a final concentration of 2 mg/ml and stored at −20° C. (MOG35-55 storage solution).
50 μg of PTX (pertussis toxin, PTX; Sigma, P7208, USA) was dissolved in 500 μl of PBS to prepare 100 μg/ml of pertussis toxin (PTX) storage solution, followed by […] at 4° C. In the experiment, the PTX storage solution was diluted 50 times with PBS and used.
On the first day of the experiment (Day-1), the EAE-inducing sample solution was administered to mice by subcutaneous injection at 200 μl per mouse. On the same day (Day-1) and two days later (Day-3), 200 μl of PTX solution was intraperitoneally administered to mice twice.
The EAE clinical score is as follows.
All data were expressed as mean±SEM. The EAE clinical scores in the group treated with the test compound were compared to those in the negative control vehicle group by date. Statistical analysis was performed using GraphPad Prism (ver. 4.0) program, and the differences between the two groups were analyzed by Student's t-test.

`NC(=O)O[C@@H](Cn1ncnn1)c1ccccc1Cl` [Test compound] was tested, and the “Number of retinal ganglion cells per unit area, Brn3a (individual values)” value (retinal ganglion cells; 20 mg/kg i.p. once daily from 12th day after EAE induction, Brn3a marker) was 2675 and 1751 and 1443 and 2139 and 720 and 2221 and 1859 and 2489 and 1674 and 2035 and 2328 and 1389 and 1919, the “Number of retinal ganglion cells per unit area, Brn3a, Mean ± SEM” value (retinal ganglion cells; 20 mg/kg i.p. once daily from 12th day after EAE induction, Brn3a marker, **p < 0.01 vs. vehicle) was 1895 and the “Number of retinal ganglion cells per unit area, RBPMS (individual values)” value (retinal ganglion cells; 20 mg/kg i.p. once daily from 12th day after EAE induction, RBPMS marker) was 3005 and 2251 and 1778 and 2976 and 1781 and 2297 and 2479.9735 and 2722 and 2362 and 2485.7761 and 2784.6808 and 2292 and 2567. The “Number of retinal ganglion cells per unit area, RBPMS, Mean ± SEM” value (retinal ganglion cells; 20 mg/kg i.p. once daily from 12th day after EAE induction, RBPMS marker, **p < 0.01 vs. vehicle) was 2445, the “Number of retinal ganglion cells per unit area compared to the vehicle group” value (retinal ganglion cells; 20 mg/kg, EAE-induced animals) was “larger number of retinal ganglion cells per unit area” and the “Pattern retinal conduction amplitude (pERG amplitude), Mean ± SEM” value ([1]; 20 mg/kg i.p. once daily from 12th day after EAE induction) was 7.803. The “Pattern retinal conduction amplitude compared to the baseline” value ([1]; 20 mg/kg or 30 mg/kg, baseline measured two days before EAE induction) was “no significant difference”, the “Pattern retinal conduction amplitude (pERG amplitude), Mean ± SEM” value ([1]; 30 mg/kg i.p. once daily from 12th day after EAE induction) was 7.378 and the EAE clinical score ([2]; Day-1~Day-9 (before dosing)) was 0.0 ± 0.0. The EAE clinical score ([2]; Day-10 (before dosing)) was 0.5 ± 0.8, the EAE clinical score ([2]; Day-11, 10 ml/kg orally once a day from Day-11) was 0.8 ± 1.0 and the EAE clinical score ([2]; Day-12, 10 ml/kg orally once a day from Day-11) was 1.2 ± 1.1. The EAE clinical score ([2]; Day-13, 10 ml/kg orally once a day from Day-11) was 1.3 ± 0.7, the EAE clinical score ([2]; Day-14, 10 ml/kg orally once a day from Day-11) was 2.0 ± 0.6 and the EAE clinical score ([2]; Day-15, 10 ml/kg orally once a day from Day-11) was 1.9 ± 0.5. It also gave an EAE clinical score ([2]; Day-16, 10 ml/kg orally once a day from Day-11) of 1.9 ± 0.6, an EAE clinical score ([2]; Day-17, 10 ml/kg orally once a day from Day-11) of 2.1 ± 0.6 and an EAE clinical score ([2]; Day-17, 10 ml/kg orally once a day from Day-11, listed as test compound) of 2.1±0.6. For the same molecule, the EAE clinical score ([2]; Day-18, 10 ml/kg orally once a day from Day-11) was 1.8 ± 0.5, the EAE clinical score ([2]; Day-19, 10 ml/kg orally once a day from Day-11, p < 0.05 vs. vehicle) was 1.7 ± 0.6 and the “Effect on EAE clinical symptoms compared to the vehicle group” value ([2]; Day-19 to Day-22, orally once a day from Day-11) was “significant inhibition of EAE clinical symptoms”. For the same molecule, the EAE clinical score ([2]; Day-20, 10 ml/kg orally once a day from Day-11, p < 0.05 vs. vehicle) was 1.4 ± 0.5, the EAE clinical score ([2]; Day-21, 10 ml/kg orally once a day from Day-11, p < 0.01 vs. vehicle) was 1.3 ± 0.4 and the EAE clinical score ([2]; Day-22, 10 ml/kg orally once a day from Day-11, p < 0.01 vs. vehicle) was 1.1 ± 0.5.
